Source: ChEMBL document CHEMBL1201862, “PubChem BioAssay data set” (2004)
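Five compound concentrations were applied to cells in 96-well plates for 48 hours; endpoints were derived by simple linear interpolation of the resulting dose-response curve. Abbreviation: GI50, concentration required for 50% inhibition of growth.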 Activity calls are given as the source filed them. No stated cut-off is given here; in the data, active = GI50 up to about 1.1 µM and inactive = higher.

Tests used:
Assay in all cases: inhibition of tumour cell growth, NCI panel, 48 h
OVCAR-8 = system: OVCAR-8
OVCAR-5 = system: OVCAR-5
HL-60 = system: HL-60
DU-145 = system: DU-145
SF-268 = system: SF-268
786-0 = system: 786-0
HCC 2998 = system: HCC 2998
KM12 = system: KM12
HOP-92 = system: HOP-92
U-251 = system: U-251
COLO 205 = system: COLO 205
CCRF-CEM = system: CCRF-CEM
SW-620 = system: SW-620
SNB-19 = system: SNB-19
Hs-578T = system: Hs-578T
A498 = system: A498
Malme-3M = system: Malme-3M
SNB-75 = system: SNB-75
NCI-H522 = system: NCI-H522
IGROV-1 = system: IGROV-1

SMILES	GI50 (OVCAR-8)	GI50 (OVCAR-5)	GI50 (HL-60)	GI50 (DU-145)	GI50 (SF-268)	GI50 (786-0)	GI50 (HCC 2998)	GI50 (KM12)	GI50 (HOP-92)	GI50 (U-251)	GI50 (COLO 205)	GI50 (CCRF-CEM)	GI50 (SW-620)	GI50 (SNB-19)	GI50 (Hs-578T)	GI50 (A498)	GI50 (Malme-3M)	GI50 (SNB-75)	GI50 (NCI-H522)	GI50 (IGROV-1)
O=[N+]([O-])/C(C(Cl)=C(Cl)Cl)=C(/Sc1ccccc1)N1CCCCC1	> 58.2 µM (inactive)	> 100 µM (inactive)	2.24 µM (inactive)	> 53.2 µM (inactive)	> 45.6 µM (inactive)	31.8 µM (inactive)	> 100 µM (inactive)	> 100 µM (inactive)	> 100 µM (inactive)	> 100 µM (inactive)	> 100 µM (inactive)	4.74 µM (inactive)	> 100 µM (inactive)	> 58.7 µM (inactive)	67 µM (inactive)	> 61.9 µM (inactive)	19.8 µM (inactive)	> 100 µM (inactive)	13.6 µM (inactive)	16.5 µM (inactive)
COc1ccc2c(c1OC)OC[C@@H](C1=CC(=O)C=C(O)C1=O)C2	19.1 µM (inactive)	18 µM (inactive)	0.641 µM (active)	15.7 µM (inactive)	18.1 µM (inactive)	5.38 µM (inactive)	17.2 µM (inactive)	13 µM (inactive)	1.89 µM (inactive)	11.7 µM (inactive)	21.3 µM (inactive)	1.36 µM (inactive)	8.2 µM (inactive)	16 µM (inactive)	20.6 µM (inactive)	15.3 µM (inactive)	12 µM (inactive)	9.62 µM (inactive)	2.7 µM (inactive)	11.7 µM (inactive)
COc1cc(NS(C)(=O)=O)ccc1Nc1c2ccccc2nc2c1[nH]c1ccc(NC3OC(CO)C(O)C(O)C3O)cc12 (stereo not given)	0.0504 µM (active)	0.444 µM (active)	0.0153 µM (active)	0.0281 µM (active)	0.018 µM (active)	0.0246 µM (active)	0.169 µM (active)	0.207 µM (active)	0.0224 µM (active)	< 0.0201 µM (active)	0.26 µM (active)	< 0.0132 µM (active)	< 0.0348 µM (active)	0.0242 µM (active)	0.518 µM (active)	0.129 µM (active)	0.0468 µM (active)	0.0251 µM (active)	0.0923 µM (active)	0.248 µM (active)
S=C1Cc2c(-c3ccccc3)cc(-c3ccc(Cl)cc3)nc2-c2ccccc2N1	0.982 µM (active)	7.45 µM (inactive)	16.9 µM (inactive)	13 µM (inactive)	1.89 µM (inactive)	1.08 µM (active)	5.07 µM (inactive)	8.75 µM (inactive)	1.72 µM (inactive)	0.746 µM (active)	5.57 µM (inactive)	3.08 µM (inactive)	2.94 µM (inactive)	1.56 µM (inactive)	1.32 µM (inactive)	1.62 µM (inactive)	3.33 µM (inactive)	0.951 µM (active)	2.06 µM (inactive)	0.971 µM (active)
Cc1ccc(C2SCc3nc4ccccc4n32)cc1 (stereo not given)	3.66 µM (inactive)	6.46 µM (inactive)	1.6 µM (inactive)	4.29 µM (inactive)	11.7 µM (inactive)	5.62 µM (inactive)	10.8 µM (inactive)	1.51 µM (inactive)	3.74 µM (inactive)	5.87 µM (inactive)	1.36 µM (inactive)	2.79 µM (inactive)	4.84 µM (inactive)	4.65 µM (inactive)	2.61 µM (inactive)	3.15 µM (inactive)	4.04 µM (inactive)	0.0103 µM (active)	4.74 µM (inactive)	3.18 µM (inactive)
N#CC1(C#N)NC(c2cccs2)C(C#N)(C#N)NC1c1cccs1 (stereo not given)	54.7 µM (inactive)	31.9 µM (inactive)	17.1 µM (inactive)	59.7 µM (inactive)	35.5 µM (inactive)	39.9 µM (inactive)	57.1 µM (inactive)	39.9 µM (inactive)	23 µM (inactive)	22.8 µM (inactive)	47.9 µM (inactive)	22.2 µM (inactive)	31.1 µM (inactive)	55.2 µM (inactive)	43.2 µM (inactive)	20.5 µM (inactive)	41.9 µM (inactive)	27.4 µM (inactive)	23.1 µM (inactive)	30.3 µM (inactive)
O=c1ccn([C@@H]2C[C@@H]2CO)c(=O)[nH]1	> 100 µM (inactive)	> 100 µM (inactive)	> 100 µM (inactive)	> 100 µM (inactive)	> 100 µM (inactive)	> 100 µM (inactive)	> 100 µM (inactive)	> 100 µM (inactive)	> 100 µM (inactive)	> 100 µM (inactive)	> 100 µM (inactive)	> 100 µM (inactive)	> 100 µM (inactive)	> 100 µM (inactive)	> 100 µM (inactive)	> 100 µM (inactive)	> 100 µM (inactive)	> 100 µM (inactive)	> 100 µM (inactive)	> 100 µM (inactive)
COC(=O)[C@@H]1COC(C(C)(C)C)N1C(=O)C(c1ccccc1)c1ccccc1 (stereo not given in full)	44.1 µM (inactive)	> 100 µM (inactive)	45.3 µM (inactive)	> 100 µM (inactive)	> 100 µM (inactive)	46.2 µM (inactive)	48.3 µM (inactive)	43.6 µM (inactive)	37 µM (inactive)	42 µM (inactive)	61.7 µM (inactive)	26.7 µM (inactive)	43.8 µM (inactive)	40.9 µM (inactive)	55.5 µM (inactive)	> 100 µM (inactive)	> 100 µM (inactive)	32.4 µM (inactive)	59 µM (inactive)	73.1 µM (inactive)
